Results taken from PubChem BioAssay AID504359 (Broad Institute, 2011).
The source made the active and inactive calls.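 How the source made its calls: active means fitted curve climbs past 10% caspase activation, relative to the positive control, at or below the top valid tested dose; inactive means the rest, including activity in the opposite direction.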

Test system: not listed separately
Experiment: caspase-3/7 activation in A1-2A-tBid MEFs, dose response, orthogonal assay for A1 inhibitor project, cell-based, MEF A1-2A-tBid, luminescence, dry powder, set 2 (AID 504359)
Conditions: MEF A1-2A-tBid cells, caspase 3/7 luminescence, 3 h; at 35 µM (top of the series)

Compound | caspase activation
CN1C(=O)C(C)(C)N(Cc2ccccc2)c2ccccc21 | 0.072% (inactive)
Cc1ccc(Sc2cc(=O)n(C)c3ccccc23)cc1 | -7.35% (inactive)
CCOCCCNc1c([N+](=O)[O-])c(=O)n(C)c2ccccc12 | 0.513% (inactive)
CCSc1c([N+](=O)[O-])c(=O)oc2ccccc12 | -3.21% (inactive)
O=c1oc2ccccc2c(Cl)c1[N+](=O)[O-] | -6.09% (inactive)
O=c1oc2ccccc2c(Nc2cc(Cl)cc(Cl)c2)c1[N+](=O)[O-] | -1.39% (inactive)
Cc1ccc(Nc2c([N+](=O)[O-])c(=O)n(C)c3ccccc23)cc1 | -0.806% (inactive)
Cc1ccc(Sc2c([N+](=O)[O-])c(=O)oc3ccccc23)cc1 | -3.75% (inactive)
Cn1c(=O)c([N+](=O)[O-])c(Oc2ccccc2)c2ccccc21 | 0.967% (inactive)
Cn1c(=O)c([N+](=O)[O-])c(Nc2ccc(Cl)cc2)c2ccccc21 | -0.562% (inactive)
CCOC(=O)N1CCN(c2c([N+](=O)[O-])c(=O)n(C)c3ccccc23)CC1 | -0.293% (inactive)
C/C1=C/C(=O)O[C@@H]2C[C@@H](CC[C@H](C)/C=C\CC1)O[C@@](O)(C1CSC(=O)N1)C2 (stereo partly specified) | 3.32% (inactive)
O=C(Oc1cccc(/C=N/Nc2nc(Nc3ccccc3)nc(N3CCOCC3)n2)c1)c1ccco1 | 3.43% (inactive)
O=c1oc2ccccc2c(Sc2ccccc2)c1[N+](=O)[O-] | -5.14% (inactive)
O=c1oc2ccccc2c(N2CCCCC2)c1[N+](=O)[O-] | -2.24% (inactive)
Cc1ccc(Nc2c([N+](=O)[O-])c(=O)oc3ccccc23)cc1 | 1.44% (inactive)

Test system: MEF A1-2A-tBid cells, caspase 3/7 luminescence, 3 h
Experiment: as above
Conditions: not given

Compound | AC10 [µM]
Cn1c(=O)c([N+](=O)[O-])c(-n2cnc3ccccc32)c2ccccc21 | 24.8
O=[N+]([O-])c1cnc2ccccc2c1Sc1ccccc1 | 7.93
Cc1ccc(Sc2c([N+](=O)[O-])c(=O)n(C)c3ccccc23)cc1 | 7.45
Cc1ccc(Sc2c([N+](=O)[O-])cnc3ccccc23)cc1 | 5.49
Cn1c(=O)c([N+](=O)[O-])c(Cl)c2ccccc21 | 0.716
